Test results as given in PubChem BioAssay (NCI).
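Tested at 5 concentrations; 48 h exposure; 96-well plates; endpoints linearly interpolated, else capped at highest concentration. Abbreviation: GI50, concentration required for 50% inhibition of growth. The concentration for full growth arrest is given as TGI.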

Key:
Assay in all cases: DTP human tumour cell line panel, 48 h
SK-MEL-5 melanoma = system: SK-MEL-5 melanoma
UACC-62 melanoma = system: UACC-62 melanoma
HCC-2998 colon = system: HCC-2998 colon
SR leukemia = system: SR leukemia
MOLT-4 leukemia = system: MOLT-4 leukemia
NCI-H226 lung = system: NCI-H226 lung
TK-10 renal = system: TK-10 renal
SF-295 CNS = system: SF-295 CNS
COLO 205 colon = system: COLO 205 colon
RXF 393 renal = system: RXF 393 renal

SMILES | TGI (SK-MEL-5 melanoma) [µM] | TGI (UACC-62 melanoma) [µM] | TGI (HCC-2998 colon) [µM] | TGI (SR leukemia) [µM] | TGI (MOLT-4 leukemia) [µM] | TGI (NCI-H226 lung) [µM] | TGI (TK-10 renal) [µM] | TGI (SF-295 CNS) [µM] | TGI (COLO 205 colon) [µM] | TGI (RXF 393 renal) [µM] | GI50 (SK-MEL-5 melanoma) [µM] | GI50 (UACC-62 melanoma) [µM] | GI50 (HCC-2998 colon) [µM] | GI50 (SR leukemia) [µM] | GI50 (MOLT-4 leukemia) [µM] | GI50 (NCI-H226 lung) [µM] | GI50 (TK-10 renal) [µM] | GI50 (SF-295 CNS) [µM] | GI50 (COLO 205 colon) [µM] | GI50 (RXF 393 renal) [µM]
O=P1(C(O)c2ccccc2)N(Cc2ccccc2)[C@@H]2CCCC[C@H]2N1Cc1ccccc1 (stereo partly specified) | > 100 | > 100 | 50.4 | 49.9 | 49.1 | 64.7 | > 100 | 56.6 | 29.1 | > 100 | – | – | – | – | – | – | – | – | – | –
C/C(=C\CNc1ncnc2c1ncn2CCC#N)CO | > 100 | > 100 | > 100 | > 100 | > 100 | > 100 | > 100 | > 100 | > 100 | > 100 | – | – | – | – | – | – | – | – | – | –
CCOC(=O)C(NC(=O)c1cccc(Cl)c1)(N1CCN(c2cc3c(cc2F)c(=O)c(C(=O)O)cn3CC)CC1)C(F)(F)F (stereo unspecified) | 27.2 | 32.4 | 27.5 | 52.2 | 19.3 | 40.1 | 56.6 | 40 | 32 | 39.4 | – | – | – | – | – | – | – | – | – | –
Cc1cc(NS(=O)(=O)c2ccc(NC(NC(=O)OC(C)C)(C(F)(F)F)C(F)(F)F)cc2)nc(C)n1 | > 100 | > 100 | > 100 | > 100 | > 100 | > 100 | > 100 | > 100 | > 100 | > 100 | – | – | – | – | – | – | – | – | – | –
O=C1c2sccc2C(=O)c2c(CO)csc21 | 2.2 | 5.67 | 13.7 | > 73.2 | > 52.9 | 15 | 23 | 8.04 | 12.2 | 3.22 | – | – | – | – | – | – | – | – | – | –
COc1ccc(Sc2ccccc2[N+](=O)[O-])cc1 | > 100 | > 100 | 62.1 | > 100 | > 100 | 45.8 | > 100 | – | 29.7 | 78.7 | – | – | – | – | – | – | – | – | – | –
Clc1cc2ncn(C3CCCO3)c2cc1Cl (stereo unspecified) | > 100 | > 100 | > 100 | > 100 | > 100 | > 100 | > 100 | > 100 | > 100 | > 100 | – | – | – | – | – | – | – | – | – | –
FC(F)(Sc1nc2ccccc2[nH]1)c1nc2ccccc2o1 | > 100 | > 100 | > 100 | > 100 | > 100 | > 100 | > 100 | > 100 | > 100 | > 100 | – | – | – | – | – | – | – | – | – | –
Cc1cc(N(CCCl)CCCl)ccc1/C=N\NC(=O)c1cccnc1 | 39.1 | 25.2 | 97.6 | > 100 | 39.2 | 2.8 | 36.2 | 28.3 | 85.3 | 48.6 | 15.7 | 4.51 | 25 | 4.81 | 8.19 | 1.11 | 11.2 | 4.17 | 19.1 | 19.2
CNC(=O)N(C)C(=O)c1ccccc1C(=O)N(C)C(=O)NC | > 10 | > 10 | > 10 | > 10 | > 10 | > 10 | > 10 | > 10 | > 10 | > 10 | – | – | – | – | – | – | – | – | – | –
CCCCCNC(=O)OC1CCn2c1nc1c2C(=O)C(C)=C(N2CC2)C1=O (stereo unspecified) | 1.73 | 3.54 | 1.37 | > 100 | 43.8 | 4.26 | 12.5 | 2.69 | 2.82 | 1.82 | – | – | – | – | – | – | – | – | – | –
CCCCC(C)(C/C=C/[C@@H]1[C@@H](C(O)CCCCCC(=O)OC)C(=O)C[C@H]1O[Si](C)(C)C(C)(C)C)O[Si](C)(C)C (stereo partly specified) | > 100 | > 100 | > 100 | > 100 | 59.4 | > 100 | > 100 | > 100 | > 100 | > 100 | – | – | – | – | – | – | – | – | – | –
COc1ccc(N=C(SSC(=Nc2ccc(OC)cc2)c2ccc([N+](=O)[O-])o2)c2ccc([N+](=O)[O-])o2)cc1 | 19.5 | 3.16 | 3.26 | > 21.7 | > 31.3 | 37.3 | 7.55 | 6.14 | – | 2.92 | – | – | – | – | – | – | – | – | – | –
Cn1c(=O)c2c(n(C)c1=O)n1c(=O)c3ccccc3nc1n2C | > 100 | > 100 | > 100 | > 100 | > 100 | 73.2 | > 100 | > 100 | > 100 | > 100 | – | – | – | – | – | – | – | – | – | –
COc1ccc(/[N+]([O-])=C/c2ccccc2OC(=S)S)cc1 | > 100 | > 100 | > 100 | > 100 | > 100 | > 100 | > 100 | > 100 | > 100 | > 100 | – | – | – | – | – | – | – | – | – | –
Nc1c(/C=C/c2cc3cc(C4=NCCN4)ccc3o2)[nH]c2cc(C3=NCCN3)ccc12 | > 100 | > 100 | > 100 | > 100 | > 100 | > 100 | 67 | > 100 | > 100 | > 100 | – | – | – | – | – | – | – | – | – | –
COC(=O)C1=C(C)C(=O)C2(CCCCCC2C(=O)OC)C1 (stereo unspecified) | > 100 | > 100 | > 100 | > 100 | > 100 | > 100 | > 100 | > 100 | > 100 | > 100 | – | – | – | – | – | – | – | – | – | –
COc1ccc(-c2cc(=O)c3cc(OC)c(OC)cc3[nH]2)cc1OC | > 100 | > 100 | > 100 | > 100 | > 100 | > 100 | > 100 | > 100 | > 100 | > 100 | – | – | – | – | – | – | – | – | – | –
CC1SCCc2nc3ccccc3n21 (stereo unspecified) | > 100 | > 100 | > 100 | > 100 | > 100 | > 100 | > 100 | > 100 | > 100 | > 100 | – | – | – | – | – | – | – | – | – | –
O=C(C[N+]1(c2ccccc2)CCOCC1)c1ccccc1 | > 100 | > 100 | > 100 | > 100 | > 100 | > 100 | > 100 | > 100 | – | > 100 | – | – | – | – | – | – | – | – | – | –
CCc1n[nH]c(=O)n1-c1ccncc1 | > 100 | – | > 100 | > 100 | > 100 | > 100 | > 100 | > 100 | > 100 | > 100 | – | – | – | – | – | – | – | – | – | –
